Results: patent US20260021046A1, “LIPID NANOPARTICLE AND PHARMACEUTICAL COMPOSITION” (NATIONAL UNIVERSITY CORPORATION HOKKAIDO UNIVERSITY, priority 2022, published 2026)
Blank lines part the entries; values can stand above or below the compound they belong to.

What was measured:
[1] = tested on: activated hepatic stellate cell line LX-2; experiment: EGFP mRNA delivery and transfection screening by FACS; assay type: cell-based; conditions: LX-2 cells; EGFP mRNA lipid nanoparticles, 250 ng mRNA per well
Description: Fourteen types of lipid nanoparticles prepared were screened with activated hepatic stellate cell line LX-2 (Merck (Germany) and hepatocyte line FL83B (ATCC, USA).
Twenty-four hours prior to the experiment, cells were seeded in 6-well plates at 1×10^5 cells/well and incubated at 37° C. The medium was aspirated and the cells were washed with (−) PBS and then treated with lipid nanoparticles encapsulating EGFP mRNA (TriLink BioTechnologies, USA) in 1.5 ml of growth medium for 24 hours. The amount of mRNA per well was 250 ng. Cells were then washed with (−) PBS and incubated in fresh medium for an additional 21 hours. The median fluorescence intensity of EGFP and the percentage of transfected cells were evaluated by fluorescence activated cell sorting (FACS) using a flow cytometer (Cytoflex, Beckman Coulter, USA).

[2] = Apparent pKa of lipid nanoparticles using TNS; conditions: lipid nanoparticles encapsulating mRNA prepared with the lipid, 37° C.
Description: The apparent acid dissociation constant pKa of the lipid membrane of a lipid nanoparticle is measured in a buffer at 37° C. using 6-p-toluidino-2-naphthalenesulfonic acid (TNS) (see Examples).
The apparent pKa of the lipid nanoparticles was also measured using 6-p-toluidino-2-naphthalenesulfonic acid (TNS) (see NPL 14). Specifically, in each well of a 96-well plate, lipid (0.5 mM) of the lipid nanoparticles and TNS (0.6 mM) were added to 200 μL of a buffer solution and mixed. The buffer solution was 20 mM citrate buffer (pH3.50 to 5.50), 20 mM sodium phosphate buffer (pH6.00 to 8.00), or 20 mM Tris-HCl buffer (pH8.00 to 9.00), and each buffer solution contained 150 mM NaCl. At this time, the final concentration of lipid was adjusted to 30 µM and the final concentration of TNS was adjusted to 6 μM. Fluorescence (excitation wavelength 321 nm, fluorescence wavelength 447 nm) was then measured at 37° C. using a plate reader (Enspire 2300 multilabel reader, Perkin Elmer). The pKa was defined as the pH value showing 50% of the maximum fluorescence intensity. • [NPL 14]

SMO mRNA = experiment: In vivo SMO mRNA knockdown in liver tissue by qRT-PCR; set-up: species or system mice; conditions: 24 hours
Description: TAA-induced liver fibrosis model mice were prepared in the same manner as in Example 1, and SMO-siRNA-encapsulated lipid nanoparticles were intravenously administered to the mice via the tail vein so that the amount of RNA per kg of body weight was 0.5 mg/kg. 24 hours after the administration, the mouse livers were collected. The ratio of the amount of SMO mRNA to the amount of GAPDH mRNA in the liver tissue was confirmed by qRT-PCR. The SMO gene is expressed only in hepatic stellate cells in the liver.
Next, a lipid composition containing CL15H6 and SMO-siRNA were mixed in different ratios to prepare lipid nanoparticles with different nitrogen/phosphate (N/P) ratios. Specifically, lipid nanoparticles were prepared with N/P ratios of 0.5, 1, 2, 4, 8, 12, 16, and 20. The prepared lipid nanoparticles were intravenously administered to mice with liver fibrosis so that the amount of RNA per kg of body weight was 0.5 mg/kg, and the ratio of the amount of SMO mRNA to the amount of GAPDH mRNA in the liver tissue was confirmed 24 hours later.
Next, the relationship between the dosage amount of SMO-siRNA and the ratio of the amount of SMO mRNA to the amount of GAPDH mRNA in the liver tissue was examined. For comparison, the relationship between the dosage amount of control siRNA (siCtrl) and the ratio of SMO mRNA to GAPDH mRNA in hepatic stellate cells was also examined.
Lipid nanoparticles encapsulating a mixture of the above SMO-siRNA and TGFβ1-siRNA at a ratio of 1:1 were prepared by using CL15H6, the above SMO-siRNA (SEQ ID NOs: 1 and 2) targeting the mRNA of the SMO gene and the TGFβ1-siRNA (SEQ ID NOS: 3 and 4) targeting the mRNA of the TGFβ1 gene and having the sequence shown in Table 4 below. The prepared lipid nanoparticles were intravenously administered to mice with liver fibrosis so that each of the amounts of SMO-siRNA and of TGFβ1-siRNA per kg of body weight was 0.25 mg/kg, and 24 hours later, the ratios of the amounts of SMO mRNA and of TGFβ1 mRNA to the amount of GAPDH mRNA in the liver tissue was confirmed.

[3] = Average particle size, PDI, zeta potential (dynamic light scattering) and RNA encapsulation efficiency (RiboGreen) of lipid nanoparticles; assay type: physicochemical; conditions: CL15H6 lipid nanoparticles with SMO-siRNA
Description: The average particle size, particle size distribution, and zeta potential of the lipid nanoparticles were measured using a Zetasizer Nano ZS (Malvern Instruments Ltd, UK) by dynamic light scattering and the form of lipid nanoparticle was measured using a transmission electron-microscope as described in NPL 12. The efficiency of mRNA encapsulation was estimated by RiboGreen fluorometry as described in NPL 13. Although the respective values vary depending on the type of pH-sensitive cationic lipid, the composition of the lipids constituting the lipid nanoparticles, the preparation conditions of the lipid nanoparticles, and the like, the average particle size of the lipid nanoparticles was in the range of 80 to 350 nm, the PDI was in the range of 0.05 to 0.4, the zeta potential was in the range of −16 to +5 mV, and the efficiency of mRNA encapsulation was 75 to 95%. • [NPL 12] Mahmoud A. Younis, et al., “A Multifunctional Lipid-Based Nanodevice for the Highly Specific Codelivery of Sorafenib and Midkine siRNA to Hepatic Cancer Cells”, Molecular Pharmaceutics, Vol. 16, pp. 4031-4044 • [NPL 13] Mahmoud M. Abd Elwakil, et al., “Engineered &-decalactone lipomers bypass the liver to selectively in vivo deliver mRNA to the lungs without targeting ligands”, Materials Horizons, Vol. 8, pp. 2251-2259
The average particle size, particle size distribution, and zeta potential of the lipid nanoparticles were measured in the same manner as in Example 1 to estimate the efficiency of SMO-siRNA encapsulation. The relationship between the flow rate ratio of the aqueous phase to the organic phase, the average particle size, particle size distribution, zeta potential, and SMO-siRNA encapsulation efficiency of the lipid nanoparticles prepared at the same flow rate ratio when CL15H6 was used as the pH-sensitive cationic lipid is shown in Table 3 below. In the subsequent experiments, lipid nanoparticles were prepared at a ratio of 4:1 (aqueous phase: organic phase), which provided the highest encapsulation efficiency, the smallest average particle size, and the smallest PDI.

[4] = aqueous phase:organic phase 2:1
[5] = aqueous phase:organic phase 3:1
[6] = aqueous phase:organic phase 4:1
[7] = aqueous phase:organic phase 5:1
[8] = aqueous phase:organic phase 9:1

SMILES: CCCCCCCCCCCCCCCC(=O)OCCCCCCC(O)(CCCCCCOC(=O)CCCCCCCCCCCCCCC)CCCCN(C)C [CL1D6, 7-(4-(dimethylamino)butyl)-7-hydroxytridecane-1,13-diyl dipalmitate]
mRNA delivery efficiency (median fluorescence intensity of EGFP) [1]: high

SMILES: CCCCCCCC/C=C\CCCCCCCC(=O)OCCCCCCC(O)(CCCCCCOC(=O)CCCCCCC/C=C\CCCCCCCC)CCCCN(C)C [CL1H6, 7-(4-(dimethylamino)butyl)-7-hydroxytridecane-1,13-diyl dioleate]
mRNA delivery efficiency (median fluorescence intensity of EGFP) [1]: high

SMILES: CCCCCCCCC(CCCCCC)C(=O)OCCCCCCC(O)(CCCCCCOC(=O)C(CCCCCC)CCCCCCCC)CCCCOC(=O)C1CCN(C)CC1 (stereo not shown) [CL15F6, 7-hydroxy-7-(4-((1-methylpiperidine-4-carbonyl)oxy)butyl)tridecane-1,13-diyl bis(2-hexyldecanoate)]
mRNA delivery efficiency (median fluorescence intensity of EGFP) [1]: high

The next lines start with results.

Apparent pKa [2]: 6.00
SMILES: CCCCCCCCC(CCCCCC)C(=O)OCCCCCCC(O)(CCCCCCOC(=O)C(CCCCCC)CCCCCCCC)CCCCN(CCC)CCC (stereo not shown) [CL4F6]

Apparent pKa [2]: 6.25
SMILES: CCCCCCCC/C=C\CCCCCCCC(=O)OCCCCCCC(O)(CCCCCCOC(=O)CCCCCCC/C=C\CCCCCCCC)CCCCN(CCC)CCC [CL4H6]

Average particle size [3, 4]: 135.72 nm
Encapsulation efficiency [3, 4]: 66.12%
PDI [3, 4]: 0.280
Zeta potential [3, 4]: −6.81 mV
Average particle size [3, 5]: 72.5 nm
Encapsulation efficiency [3, 5]: 92.33%
PDI [3, 5]: 0.192
Zeta potential [3, 5]: −3.75 mV
Average particle size [3, 6]: 53.45 nm
Encapsulation efficiency [3, 6]: 94.06%
PDI [3, 6]: 0.093
Zeta potential [3, 6]: −3.35 mV
Average particle size [3, 7]: 57.12 nm
Encapsulation efficiency [3, 7]: 89.19%
PDI [3, 7]: 0.169
Zeta potential [3, 7]: −5.08 mV
Average particle size [3, 8]: 58.53 nm
Encapsulation efficiency [3, 8]: 75.55%
PDI [3, 8]: 0.217
Zeta potential [3, 8]: −8.2 mV
SMILES: CCCCCCCC/C=C\CCCCCCCC(=O)OCCCCCCC(O)(CCCCCCOC(=O)CCCCCCC/C=C\CCCCCCCC)CCCCOC(=O)C1CCN(C)CC1 [CL15H6, 7-hydroxy-7-(4-((1-methylpiperidine-4-carbonyl)oxy)butyl)tridecane-1,13-diyl dioleate]
amount of SMO mRNA (ratio to GAPDH mRNA) in liver tissue (SMO mRNA; CL15H6 SMO-siRNA lipid nanoparticles, 0.5 mg/kg iv, N/P ratio 4 among 0.5 to 20): lowest
amount of SMO mRNA (ratio to GAPDH mRNA) in liver tissue (SMO mRNA; SMO-siRNA lipid nanoparticles, 0.5 mg/kg RNA iv, versus HEPES buffer control): significantly reduced
mRNA delivery efficiency (median fluorescence intensity of EGFP) [1]: high
